Assay results from patent US11292799B2, “Substituted azetidine dihydrothienopyrimidines and their use as phosphodiesterase inhibitors” (UNION therapeutics A/S, priority 2017, dated 2022).

Legend:
[1] = test system: TNF-α release, human peripheral blood mononuclear cells (PBMC); assay: TNF-α release in LPS-stimulated PBMC; assay type: cell-based; conditions: lipopolysaccharide stimulation for 18 hours, read-out: TNF-α IC50 range
Method: Human peripheral blood mononuclear cells (PBMC) were isolated from buffy coats. The blood is mixed with saline at a ratio of 1:1, and the PBMC were isolated using Lymphoprep Tubes™ (Nycomed, Norway). The PBMC were suspended in RPMI1640 with 0.5% human serum albumin, pen/strep and 2 mM L-glutamine at a concentration of 5×105 c/ml. The cells were pre-incubated for 30 minutes with the test compounds in 96 well tissue culture plates and stimulated for 18 hours with lipopolysaccharide […] (Sigma). TNF-α concentration in the supernatants was measured using homogeneous time-resolved fluorescence resonance (TR-FRET). The assay is quantified by measuring fluorescence at 665 nm (proportional to TNF-α concentration) and 620 nm (control).
Results were expressed as IC50 values calculated from inhibition curves using as positive controls the secretion in LPS stimulated wells and as negative controls the secretion in unstimulated cells.

[2] = target: human PDE4D catalytic domain (Homo sapiens (Human), UniProt Q08499); assay: PDE4 assay (TR-FRET, cAMP cleavage); assay type: biochemical; conditions: read-out: PDE4 IC50 range
Chain of human PDE4D catalytic domain (Q08499 380-740 limits assumed): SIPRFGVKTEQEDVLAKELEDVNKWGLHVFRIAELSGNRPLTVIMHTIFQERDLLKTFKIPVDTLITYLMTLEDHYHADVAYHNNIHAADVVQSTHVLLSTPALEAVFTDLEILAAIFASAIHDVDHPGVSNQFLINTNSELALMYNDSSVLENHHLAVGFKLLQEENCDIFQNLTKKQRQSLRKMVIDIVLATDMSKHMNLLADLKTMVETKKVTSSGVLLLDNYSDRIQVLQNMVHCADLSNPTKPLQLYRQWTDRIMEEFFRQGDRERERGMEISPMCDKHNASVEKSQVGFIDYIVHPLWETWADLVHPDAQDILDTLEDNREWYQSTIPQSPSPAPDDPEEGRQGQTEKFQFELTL
Method: The human PDE4D catalytic domain (UniProt no. Q08499 [[…]]) was incubated with a mixture of non-labelled cAMP (cyclic adenosine monophosphate) and fluorescein amidite (FAM) conjugated cAMP and titrated test or reference compound. Following brief incubation the enzymatic reaction was stopped by addition of binding buffer containing nanoparticles with immobilized trivalent metal ions capable of binding 1) AMP phospho groups and 2) terbium (Tb) donor fluorophores. Subsequent excitation of the Tb donor triggers time-resolved FRET to adjacent FAM acceptor molecules resulting in light emission. In the presence of a PDE4 inhibitor, AMP generation was reduced resulting in a lower fluorescence signal. The cAMP phosphodiester is not bound by the detection system.
The results were calculated as the molar concentrations resulting in 50% inhibition of the substrate cleavage compared to controls samples, and are expressed as IC50 (nM).

SMILES	IC50 [1] [nM]	IC50 [2] [nM]
O=S1(=O)CC(Nc2nc(N3CC(c4ccccc4)C3)nc3c2[S@+]([O-])CC3)C1 [Example 4, (R)-3-((5-Oxido-2-(3-phenylazetidin-1-yl)-6,7-dihydrothieno[3,2-d]pyrimidin-4-yl)amino)thietane 1,1-dioxide]	10 to 50	–
CC1(Nc2nc(N3CC(c4ccccn4)C3)nc3c2[S@+]([O-])CC3)CCC1 [Example 15, (R)-4-((1-Methylcyclobutyl)amino)-2-(3-(pyridin-2-yl)azetidin-1-yl)-6,7-dihydrothieno[3,2-d]pyrimidine 5-oxide]	< 10	< 10
[O-][S+]1CCc2nc(N3CC(c4ccccc4)C3)nc(NC3CCOCC3)c21 (stereo in doubt) [Example 1, (R)-2-(3-Phenylazetidin-1-yl)-4-((tetrahydro-2H-pyran-4-yl)amino)-6,7-dihydrothieno[3,2-d]pyrimidine 5-oxide]	< 10	< 10
COC(=O)N1CCC[C@@H](Nc2nc(N3CC(Oc4ccc(F)cc4)C3)nc3c2[S@+]([O-])CC3)C1 [Example 7, Methyl (3R)-3-(((5R)-2-(3-(4-Fluorophenoxy)azetidin-1-yl)-5-oxido-6,7-dihydrothieno[3,2-d]pyrimidin-4-yl)amino)piperidine-1-carboxylate]	< 10	< 10
[O-][S+]1CCc2nc(N3CC(Oc4ccc(F)cc4)C3)nc(NC3CCOCC3)c21 (stereo in doubt) [Example 3, (R)-2-(3-(4-Fluorophenoxy)azetidin-1-yl)-4-((tetrahydro-2H-pyran-4-yl)amino)-6,7-dihydrothieno[3,2-d]pyrimidine 5-oxide]	< 10	< 10
[O-][S+]1CCc2nc(N3CC(Oc4ccccc4)C3)nc(NC3CCOCC3)c21 (stereo in doubt) [Example 2, (R)-2-(3-Phenoxyazetidin-1-yl)-4-((tetrahydro-2H-pyran-4-yl)amino)-6,7-dihydrothieno[3,2-d]pyrimidine 5-oxide]	< 10	< 10
[O-][S+]1CCc2nc(N3CC(Oc4ccc(F)cc4)C3)nc(NC34CC(C3)C4)c21 (stereo in doubt) [Example 10, (R)-4-(Bicyclo[1.1.1]pentan-1-ylamino)-2-(3-(4-fluorophenoxy)azetidin-1-yl)-6,7-dihydrothieno[3,2-d]pyrimidine 5-oxide]	< 10	< 10
COC(=O)N1CC[C@H](Nc2nc(N3CC(c4ccccc4)C3)nc3c2[S@+]([O-])CC3)C1 [Example 5, Methyl (3S)-3-(((5R)-5-oxido-2-(3-phenylazetidin-1-yl)-6,7-dihydrothieno[3,2-d]pyrimidin-4-yl)amino)pyrrolidine-1-carboxylate]	10 to 50	10 to 50
[O-][S+]1CCc2nc(N3CC(c4ccccc4)C3)nc(NC34CC(C3)C4)c21 (stereo in doubt) [Example 11, (R)-4-(Bicyclo[1.1.1]pentan-1-ylamino)-2-(3-phenylazetidin-1-yl)-6,7-dihydrothieno[3,2-d]pyrimidine 5-oxide]	< 10	< 10
COC(=O)N1CCC[C@H](Nc2nc(N3CC(Oc4ccc(F)cc4)C3)nc3c2[S@+]([O-])CC3)C1 [Example 8, Methyl (3S)-3-(((5R)-2-(3-(4-Fluorophenoxy)azetidin-1-yl)-5-oxido-6,7-dihydrothieno[3,2-d]pyrimidin-4-yl)amino)piperidine-1-carboxylate]	< 10	< 10
[O-][S+]1CCc2nc(N3CC(c4ccccn4)C3)nc(NC34CC(C3)C4)c21 (stereo in doubt) [Example 12, (R)-4-(Bicyclo[1.1.1]pentan-1-ylamino)-2-(3-(pyridin-2-yl)azetidin-1-yl)-6,7-dihydrothieno[3,2-d]pyrimidine 5-oxide]	10 to 50	10 to 50
[O-][S+]1CCc2nc(N3CC(c4cccc(F)c4)C3)nc(NC34CC(C3)C4)c21 (stereo in doubt) [Example 13, (R)-4-(Bicyclo[1.1.1]pentan-1-ylamino)-2-(3-(3-fluorophenyl)azetidin-1-yl)-6,7-dihydrothieno[3,2-d]pyrimidine 5-oxide]	< 10	< 10
CC1(Nc2nc(N3CC(c4cccnc4)C3)nc3c2[S@+]([O-])CC3)CCC1 [Example 16, (R)-4-((1-Methylcyclobutyl)amino)-2-(3-(pyridin-3-yl)azetidin-1-yl)-6,7-dihydrothieno[3,2-d]pyrimidine 5-oxide]	10 to 50	10 to 50
[O-][S+]1CCc2nc(N3CC(c4ccc(F)cc4)C3)nc(NC34CC(C3)C4)c21 (stereo in doubt) [Example 9, (R)-4-(Bicyclo[1.1.1]pentan-1-ylamino)-2-(3-(4-fluorophenyl)azetidin-1-yl)-6,7-dihydrothieno[3,2-d]pyrimidine 5-oxide]	< 10	< 10
O=S1(=O)CCC(Nc2nc(N3CC(c4ccccc4)C3)nc3c2[S+]([O-])CC3)CC1 (stereo in doubt) [Example 17, (5R)—N-(1,1-Dioxothian-4-yl)-5-oxido-2-(3-phenylazetidin-1-yl)-6,7-dihydrothieno[3,2-d]pyrimidin-4-yl-amine]	< 10	–
COC(=O)N1CC[C@@H](Nc2nc(N3CC(c4ccccc4)C3)nc3c2[S@+]([O-])CC3)C1 [Example 6, Methyl (3R)-3-(((5R)-5-Oxido-2-(3-phenylazetidin-1-yl)-6,7-dihydrothieno[3,2-d]pyrimidin-4-yl)amino)pyrrolidine-1-carboxylate]	< 10	< 10
[O-][S+]1CCc2nc(N3CC(Oc4cccnc4)C3)nc(NC34CC(C3)C4)c21 (stereo in doubt) [Example 14, (R)-4-(Bicyclo[1.1.1]pentan-1-ylamino)-2-(3-(pyridin-3-yloxy)azetidin-1-yl)-6,7-dihydrothieno[3,2-d]pyrimidine 5-oxide]	10 to 50	< 10
